Experiments:
benzodiazepine receptors = test: Inhibition of the binding to benzodiazepine receptors (rat brains); settings: rat brains incubated 1 h 30 at 4° C.; 3H-RO-15-4788 and 3H-RO-5-4864 as tracers; Table I; read-out: BDZ receptors (inhibition of the binding to benzodiazepine receptors)
From the text: 2) Inhibition of the binding to benzodiazepine receptors
The interest of the previous experimentation depends on the results obtained in this experimentation: as a compound of the invention has a benzodiazepine like structure, it is important to check whether the specific benzodiazepine activity would not appear at the dose where platelet agregation was inhibited.
Therefore, this experimentation has been conducted according to the method of MOHLER H. and RICHARD J. G. Agonist and antagonist benzodiazepine receptor intereaction in vitro, Nature, vol. 294, 763°-765, 1981.
This experimentation was conducted on rat brains incubated 1 h 30 at 4° C. using ^3 H-RO-15-4788 and ^3 H-RO-5-4864 (NEN) as tracers and […] and RO-5-4864 as reference antagonists.
The results in molecular concentration are reported in the table I, on the right hand column.

[1] = test system: platelet agregation induced by PAF; test: Inhibition of platelet agregation induced by PAF; type: cell-based, New Zealand rabbits; settings: Oryctolagus cuniculus, New Zealand rabbit platelets, agregometer at 57° C., Table I
Procedure: 1) Inhibition of platelet agregation induced by PAF
This experimentation was conducted according to the method of R. KINLOUGH. RATHBONE, J. P. CAZENAVE, M. PACKHAM and F. MUSTARD, Lab. Invest. 48, 98, 1980. In this test, New Zealand rabbits were used (male New Zealand rabbits of an average weight of 5 kg).
The determinations are made on a chrono-log Coultronics agregometer, at […] coupled with a graphic recorder; the results of these determinations (in molecular concentration) are reported on the table I on the central column.

| SMILES | IC50 (benzodiazepine receptors) | IC50 [1] |
| --- | --- | --- |
| Cc1nnc2n1-c1sc3c(c1C(c1ccccc1Cl)=NC2)CCN(C(=O)NC(C)C)C3 [Example 2, 6-(2-chlorophenyl)-9-isopropylcarbamoyl-7,8,9,10-tetra-hydro-1-methyl4H-pyrido[4',3':4,5]thieno[3,2-f]1,2,4-triazolo [4,3-a] 1,4-diazepine] | 66000 nM | 23.5 nM |
| Cc1nnc2n1-c1sc3c(c1C(c1ccccc1Cl)=NC2)CCN(C(=S)NC(C)(C)C)C3 [Example 4, 6-(2-chlorophenyl)-9-tertbutylthiocarbamoyl-7,8,9,10-tetrahydro-1-methyl4H-pyrido[4',3':4,5]theno [3,2-f]1,2,4-triazolo[4,3-a]1,4-diazepine] | 135 nM | 8.82 nM |
| COc1ccc(NC(=O)N2CCc3c(sc4c3C(c3ccccc3Cl)=NCc3nnc(C)n3-4)C2)cc1 [Example 6, 6-(2-chlorophenyl)-9-(4-methoxy)phenylcarbamoyl-7,8,9,10-tetrahydro-1-methyl 4H-pyrido[4',3':4,5]thieno[3,2-f]1,2,4-triazolo[4,3-a]1,4-diazepine] | 77000 nM | 127 nM |
| COc1cc(NC(=S)N2CCc3c(sc4c3C(c3ccccc3Cl)=NCc3nnc(C)n3-4)C2)cc(OC)c1OC [Example 9, 6-(2-chlorophenyl)-9-(3,4,5-trimethoxy)phenylthiocarbamoyl-7,8,9,10-tetrahydro-1-methyl 4H-pyrido[4',3':4,5]thieno [3,2-f]1,2,4-triazolo[4,3-a]1,4-diazepine] | 4500 nM | 38.7 nM |
| Cc1nnc2n1-c1sc3c(c1C(c1ccccc1Cl)=NC2)CCN(C(=S)Nc1ccc(C(C)(C)C)cc1)C3 [Example 11, 6-(2-chlorophenyl)-9-(4-tertbutyl)phenylthiocarbamoyl-4H-pyrido[4',3':4,5]thieno [3,2-f]1,2,4-triazolo[4,3-a]1,4-diazepine] | 1200 nM | 9.44 nM |
| Cc1nnc2n1-c1sc3c(c1C(c1ccccc1Cl)=NC2)CCN(C(=S)Nc1ccccc1C(F)(F)F)C3 [Example 12, 6-(2-chlorophenyl)-9-(2-trifluoromethyl)phenylthiocarbamoyl-7,8,9,10-tetrahydro-1-methyl 4H-pyrido[4',3':4,5]thieno[3,2-f]1,2,4-triazolo[4,3-a]1,4-diazepine] | 3500 nM | 171 nM |
| Cc1nnc2n1-c1sc3c(c1C(c1ccccc1Cl)=NC2)CCN(C(=S)Nc1cccc(C(F)(F)F)c1)C3 [Example 13, 6-(2-chlorophenyl)-9-(3-trifluoromethyl)phenylthiocarbamoyl-7,8,9,10-tetrahydro-1-methyl 4H-pyrido[4',3':4,5]thieno[3,2-f]1,2,4-triazolo[4,3-a]1,4-diazepine] | 6250 nM | 171 nM |
| Cc1nnc2n1-c1sc3c(c1C(c1ccccc1Cl)=NC2)CCN(C(=S)Nc1ccc(C(F)(F)F)cc1)C3 [Example 15, 6-(2-chlorophenyl)-9-(4-trifluoromethyl)phenylthiocarbamoyl-7,8,9,10-tetrahydro-1-methyl 4H-pyrido[4',3':4,5]thieno[3,2-f]1,2,4-triazolo[4,3-a]1,4-diazepine] | 1250 nM | 220 nM |
| Cc1nnc2n1-c1sc3c(c1C(c1ccccc1Cl)=NC2)CCN(C(=S)Nc1ccc(F)cc1)C3 [Example 16, 6-(2-chlorophenyl)-9-(4-fluoro)phenylthiocarbamoyl-7,8,9,10-tetrahydro-1-methyl 4H-pyrido[4',3':4,5]thieno[3,2-f]1,2,4-triazolo[4,3-a]1,4-diazepine] | 700 nM | 64 nM |
| Cc1nnc2n1-c1sc3c(c1C(c1ccccc1Cl)=NC2)CCN(C(=S)NC(C)Cc1ccccc1)C3 (stereo not drawn) [Example 19, 6-(2-chlorophenyl)-9-(α-methyl)phenethylthiocarbamoyl-7,8,9,10-tetrahydro-1-methyl 4H-pyrido[4',3':4,5]thieno[3,2-f]1,2,4-triazolo[4,3-a]1,4-diazepine] | 360 nM | 42.5 nM |
| Cc1nnc2n1-c1sc3c(c1C(c1ccccc1Cl)=NC2)CCN(C(=S)NCC(C)c1ccccc1)C3 (stereo not drawn) [Example 20, 6-(2-chlorophenyl)-9-(β-methyl)phenethylthiocarbamoyl-7,8,9,10-tetrahydro-1-methyl 4H-pyrido[4',3':4,5]thieno[3,2-f]1,2,4-triazolo[4,3-a]1,4-diazepine] | 720 nM | 6.17 nM |
| Cc1nnc2n1-c1sc3c(c1C(c1ccccc1Cl)=NC2)CCN(C(=S)Nc1ccc(S(C)(=O)=O)cc1)C3 [Example 21, 6-(2-chlorophenyl)-9-(4-methylsulfonyl)phenylthiocarbamoyl-7,8,9,10-tetrahydro-1-methyl 4H-pyrido[4',3':4,5]thieno[3,2-f]1,2,4-triazolo[4,3-a]1,4-diazepine] | 1100 nM | 24 nM |
| Cc1nnc2n1-c1sc3c(c1C(c1ccccc1Cl)=NC2)CCN(C(=O)NCc1ccccc1)C3 [Example 23, 6-(2-chlorophenyl)-9-benzylcarbamoyl-7,8,9,10-tetrahydro-1-methyl-4H-pyrido[4',3':4,5]thieno[3,2-f]1,2,4-triazolo[4,3-a]1,4-diazepine] | 1600 nM | 66.8 nM |
| Cc1nnc2n1-c1sc3c(c1C(c1ccccc1Cl)=NC2)CCN(C(=S)Nc1cnc2ccccc2c1)C3 [Example 25, 6-(2-chlorophenyl)-9-(3-quinolyl)thiocarbamoyl-7,8,9,10-tetrahydro-1-methyl-4H-pyrido[4',3':4,5]thieno[3,2-f]1,2,4-triazolo[4,3-a]1,4-diazepine] | 350 nM | 182 nM |
| Cc1nnc2n1-c1sc3c(c1C(c1ccccc1Cl)=NC2)CCN(C(=S)NC1CCCCC1)C3 [Example 26, 6-(2-chlorophenyl)-9-cyclohexylthiocarbamoyl-7,8,9,10-tetrahydro-1-methyl-4H-pyrido[4',3':4,5]thieno[3,2-f]1,2,4-triazolo[4,3-a]1,4-diazepine] | 4100 nM | 53.3 nM |
| Cc1nnc2n1-c1sc3c(c1C(c1ccccc1Cl)=NC2)CCN(C(=O)NC1CCCCC1)C3 [Example 27, 6-(2-chlorophenyl)-9-cyclohexylcarbamoyl-7,8,9,10-tetrahydro-1-methyl-4H-pyrido[4', 3':4,5]thieno[3,2-f]1,2,4-triazolo[4,3-a]1,4-diazepine] | 2000 nM | 45.2 nM |
| C=CCNC(=S)N1CCc2c(sc3c2C(c2ccccc2Cl)=NCc2nnc(C)n2-3)C1 [Example 28, 6-(2-chlorophenyl)-9-allylthiocarbamoyl-7,8,9,10-tetrahydro-1-methyl-4H-pyrido[4',3':4,5]thieno[3,2-f]1,2,4-triazolo[4,3-a]1,4-diazepine] | 140 nM | 9.05 nM |
| Cc1nnc2n1-c1sc3c(c1C(c1ccccc1Cl)=NC2)CCN(C(=O)Nc1ccc(F)cc1F)C3 [Example 29, 6-(2-chlorophenyl)-9-(2,4-difluoro)phenylcarbamoyl-7,8,9,10-tetrahydro-1-methyl-4H-pyrido [4',3':4,5]thieno[3,2-f]1,2,4-triazolo[4,3-a]1,4-diazepine] | 220 nM | 58.6 nM |
| Cc1nnc2n1-c1sc3c(c1C(c1ccccc1Cl)=NC2)CCN(C(=S)NS(=O)(=O)c1ccco1)C3 [Example 31, 6-(2-chlorophenyl)-9-(2-furylsulfonyl)thiocarbamoyl-7,8,9,10-tetrahydro-1-methyl-4H-pyrido[4',3':4,5]thieno[3,2-f]1,2,4-triazolo[4,3-a]1,4-diazepine] | 615 nM | 8.15 nM |
| Cc1nnc2n1-c1sc3c(c1C(c1ccccc1Cl)=NC2)CCN(C(=O)NS(=O)(=O)c1cccs1)C3 [Example 32, 6-(2-chlorophenyl)-9-(2-thienylsulfonyl)carbamoyl-7,8,9,10-tetrahydro-1-methyl-4H-pyrido[4',5':4,5]thieno[3,2-f]1,2,4-triazolo[4,3-a]1,4-diazepine] | 4330 nM | 66.6 nM |
| Cc1nnc2n1-c1sc3c(c1C(c1ccccc1Cl)=NC2)CCN(C(=O)NS(=O)(=O)c1cccnc1)C3 [Example 34, 6-(2-chlorophenyl)-9-(3-pyridylsulfonyl)carbamoyl-7,8,9,10-tetrahydro-1-methyl-4H-pyrido[4',3':4,5]thieno[3,2-f]1,2,4-triazolo[4,3-a]1,4-diazepine] | 40000 nM | 100 nM |
| Cc1nnc2n1-c1sc3c(c1C(c1ccccc1Cl)=NC2)CCN(C(=S)NS(=O)(=O)c1ccnc2ccccc12)C3 [Example 35, 6-(2-chlorophenyl)-9-(4-quinolylsulfonyl)thiocarbamoyl-7,8,9,10-tetrahydro-1-methyl-4H-pyrido[4',3':4,5]thieno [3,2-f]1,2,4-triazolo[4,3-a]1,4-diazepine] | 2200 nM | 34 nM |
| Cc1nnc2n1-c1sc3c(c1C(c1ccccc1Cl)=NC2)CCN(C(=O)NS(=O)(=O)N1CCOCC1)C3 [Example 36, 6-(2-chlorophenyl)-9-(4-morpholinylsulfonyl)carbamoyl-7,8,9,10-tetrahydro-1-methyl-4H-pyrido[4',3':4,5]thieno[3,2-f]1,2,4-triazolo[4,3-a]1,4-diazepine] | 7250 nM | 6.1 nM |

Source: US5492906A, “Derivatives of thieno-triazolo-diazepine and therapeutic compositions containing them” (Societe de Conseils de Recherches et d'Applications …, priority 1989, dated 1996)
